Assay results as given in patent US20150143553A1, “Methods And Compositions Comprising A Drosophila Model Of Amyotrophic Lateral Sclerosis” (priority 2013, published 2015).
Structures can show the parent of a compound that is named as a salt.

tested on: Drosophila larvae expressing wild-type TDP-43 in motor neurons; experiment: Drug screen: rescue of lethality caused by wild-type TDP-43 expression in motor neurons (D42 Gal4); format: in vivo; conditions: transgene WT2; 30 μM in fly food
Excerpt: […] Larvae expressing TDP-43 (wild type or mutant, as shown) are raised on drug containing food.
[…] Larvae expressing TDP-43 (wt or mutant) were raised on drug containing food.
Using a Drosophila model of ALS based on TDP-43 that recapitulates several aspects of the disease pathophysiology (33, 35), a drug screen aimed at identifying FDA approved compounds with neuroprotective potential in vivo were designed (FIG. 37A). […] This phenotype was used to screen for drug candidates with therapeutic potential as determined by their ability to rescue pupal lethality and produce viable adults with extended wings (FIG. 37A). […]
UAS TDP-43 males were crossed with D42-Gal4 female virgins on fly food containing either DMSO or pioglitazone. For DMSO controls, the same volume of DMSO as the corresponding drug concentration was added. Bromophenol blue was added to a final concentration of approximately 0.02% to ensure homogeneity. Crosses were made on drug food with 3 female virgins and 2 males in each vial, and were maintained at 25° C. unless noted. The parents were discarded after 5-7 days then the vials were screened for adult progeny with straight wings from day 14 to day 25. All adults were screened for TDP-43 expression by visualizing the YFP tag. Total number of pupae was counted on day 25. Percent survival was calculated using the formula (total number of straight-winged adults/total number of pupae)×100. All experiments were performed in triplicate.

| Compound | Preliminary rescue result: adults with normal wings |
| --- | --- |
| Cl.NCC(O)c1ccc(O)cc1 (racemic) [(+,−)-Octopamine HCl] | 5 Adult Normal Wings Adults |
| CC(=O)Oc1ccccc1C(=O)O [Acetylsalicylic Acid] | 1/1 |
| CCC(=O)OCC(=O)[C@@]1(OC(=O)CC)[C@H](C)C[C@H]2[C@H]3[C@H]([C@@H](O)C[C@@]21C)[C@@]1(C)C=CC(=O)C=C1C[C@H]3Cl [Alclometasone Dipropionate] | 2 Adult Normal Wings Adults |
| CCCCC(CC)CNC(=N)NC(=N)NCCCCCCNC(=N)NC(=N)NCC(CC)CCCC (stereo not drawn) [Alexidine Dihydrochloride] | 6 Adults Normal Wings |
| CC(=O)OCC(=O)[C@@]12OC3(CCCC3)O[C@@H]1C[C@H]1[C@@H]3CCC4=CC(=O)C=C[C@]4(C)[C@@]3(F)[C@@H](O)C[C@@]12C [Amcinonide] | 1/1 |
| CN(C)CCCO[C@@H]1[C@H]2OC(C)(C)O[C@H]2O[C@@H]1[C@H](O)CO [Amiprilose HCl] | 1 Adult Normal Wings Adults |
| Nc1cc(-c2ccncc2)c[nH]c1=O [Amrinone] | 1 Adult Normal Wings Adults |
| CC(C)c1c(C(=O)Nc2ccccc2)c(-c2ccccc2)c(-c2ccc(F)cc2)n1CC[C@@H](O)C[C@@H](O)CC(=O)O [Atorvastatin] | 1 Adult Normal Wings Adults |
| CC[C@H]1OC(=O)[C@H](C)[C@@H](O[C@H]2C[C@@](C)(OC)[C@@H](O)[C@H](C)O2)[C@H](C)[C@@H](O[C@@H]2O[C@H](C)C[C@H](N(C)C)[C@H]2O)[C@](C)(O)C[C@@H](C)CN(C)[C@H](C)[C@@H](O)[C@]1(C)O [Azithromycin] | 1 Adult Normal Wings Adults |
| CC1(C)S[C@@H]2[C@H](NC(=O)[C@H](NC(=O)N3CCNC3=O)c3ccccc3)C(=O)N2[C@H]1C(=O)[O-].[Na+] [Azlocillin Na Salt] | 1 Adult Normal Wings Adults |
| CN1[C@@H]2CC[C@H]1C[C@@H](OC(c1ccccc1)c1ccccc1)C2 [Benztropine Mesylate] | 2 Adult Normal Wings Adults |
| C[N+](C)(CCOc1ccccc1)Cc1ccccc1.O=C([O-])c1cc2ccccc2cc1O [BepheniμM Hydroxynaphthoate] | 2 Adult Normal Wings Adults |
| COc1ccccc1OCCNCC(O)COc1cccc2[nH]c3ccccc3c12 (stereo not drawn) [Carvedilol] | 1 Adult Normal Wings Adults |
| Cn1nnnc1SCC1=C(C(=O)[O-])N2C(=O)[C@@H](NC(=O)[C@H](O)c3ccccc3)[C@H]2SC1.[Na+] [Cefamandole Na Salt] | 2/3 Adult Normal Wing |
| CO/N=C(\C(=O)N[C@@H]1C(=O)N2C(C(=O)O)=C(C[N+]3(C)CCCC3)CS[C@H]12)c1csc(N)n1 [Cefepime Hydrochloride] | 2 Adult Normal Wings Adults |
| CO[C@@]1(NC(=O)Cc2cccs2)C(=O)N2C(C(=O)O)=C(COC(N)=O)CS[C@@H]21 [Cefoxitin Sodium Salt] | 1 Adult Normal Wings Adults |
| COCCOC(=O)C1=C(C)NC(C)=C(C(=O)OC/C=C/c2ccccc2)C1c1cccc([N+](=O)[O-])c1 (stereo not drawn) [Cilnidipine] | 2 Adult Normal Wings Adults |

| Compound | Preliminary rescue result: adults with normal wings |
| --- | --- |
| NC1CCN(c2c(F)cc3c(=O)c(C(=O)O)cn(C4CC4)c3c2Cl)C1 (stereo not drawn) [Clinafloxacin] | 4 Adult Normal Wings Adults |
| CC(C)(Oc1ccc(Cl)cc1)C(=O)O [Clofibric Acid] | 2 Adult Normal Wings Adults |
| Clc1ccc(C(OCCN2CCCCC2)c2ccccc2)cc1 (stereo not drawn) [Cloperastine HCl] | 1 Adult Normal Wings Adults |
| NS(=O)(=O)c1cc2c(cc1Cl)NC(CC1CCCC1)NS2(=O)=O (stereo not drawn) [Cyclopenthiazide] | 1 Adult Normal Wings Adults |
| NC(=O)C(c1ccccc1)(c1ccccc1)[C@@H]1CCN(CCc2ccc3c(c2)CCO3)C1 [Darifenacin Hydrobromide] | 3 Adult Normal Wings Adults |
| C[C@]12CC[C@H]3[C@@H](CCC4=CC(=O)CC[C@@]43C)[C@@H]1CC[C@@H]2C(=O)CO [Deoxycorticosterone] | 1 Adult Normal Wings Adults |
| NS(=O)(=O)c1cc(Cl)c(Cl)c(S(N)(=O)=O)c1 [Dichlorphenamide] | 2 Adult Normal Wings Adults |
| COc1ccc(C(=O)c2ccccc2O)c(O)c1 [Dioxybenzone] | 14 Adult Normal Wings Adults |
| COc1cc2nc(N3CCN(C(=O)C4COc5ccccc5O4)CC3)nc(N)c2cc1OC (stereo not drawn) [Doxazosin Mesylate] | 1 Adult Normal Wings Adults |
| CCN(CC)CCOC(=O)C(c1ccccc1)C1CCCCC1 (stereo not drawn) [Drofenine HCl] | 1 Adult Normal Wings Adults |
| CCCCC(=O)O[C@H]1CC[C@H]2[C@@H]3CCc4cc(O)ccc4[C@H]3CC[C@]12C [Estradiol Valerate] | 1 Adult Normal Wings Adults |
| C#C[C@]1(O)CC[C@H]2[C@@H]3CCc4cc(OC)ccc4[C@H]3CC[C@@]21C [Ethynyletradiol 3-Methyl Ether] | 5 Adult Normal Wings Adults |
| CCNCC(O)c1cccc(O)c1.Cl (stereo not drawn) [Etilifrine Hydrochloride] | 1 Adult Normal Wing Adults |
| CC1CC(OC(=O)C(O)c2ccccc2)CC(C)(C)N1C (stereo not drawn) [Eucatropine HCl] | 1 Adult Normal Wings Adults |
| O=C(O)Cc1ccc(-c2ccccc2)cc1 [Felbinac] | 1 Adult Normal Wings Adults |
| CC(C(=O)[O-])c1cccc(Oc2ccccc2)c1.CC(C(=O)[O-])c1cccc(Oc2ccccc2)c1.O.O.[Ca+2] (stereo not drawn) [Fenoprofen Ca Salt Dihydrate] | 2 Adult Normal Wings Adults |
| CC(C)(C(=O)O)c1ccc(C(O)CCCN2CCC(C(O)(c3ccccc3)c3ccccc3)CC2)cc1 (stereo not drawn) [Fexofenadine Hcl] | 1 Adult Normal Wings Adults |

same assay, conditions: transgene WT2; 50 μM in fly food

| Compound | Preliminary rescue result: adults with normal wings |
| --- | --- |
| COC(c1ccccc1)(c1ccccc1)[C@H](Oc1nc(C)cc(C)n1)C(=O)O [Amrisentan] | 1 Adult Normal Wings Adults |
| O=C1c2c(O)cccc2Cc2cccc(O)c21 [Anthralin] | 1 Adult Normal Wings Adults |
| CCCCOc1cc(C(=O)OCCN(CC)CC)ccc1N [Benoxinate Hydrochloride] | 1 Adult Normal Wings Adults |
| CC(C)NCC(O)COc1ccc(COCCOC(C)C)cc1.CC(C)NCC(O)COc1ccc(COCCOC(C)C)cc1.O=C(O)/C=C/C(=O)O (stereo not drawn) [Beoprolol Fumarate] | 1 Adult Normal Wings Adults |
| C=CCC1(CC(C)C)C(=O)NC(=O)NC1=O [Butalbital] | 1 Adult Normal Wings Adults |
| COC(=O)N/N=C/c1c[n+]([O-])c2ccccc2[n+]1[O-] [Carbadox] | 1 Adult Normal Wings Adults |
| CC(C)(C)NCC(O)COc1cccc2c1CCC(=O)N2 (stereo not drawn) [Carteolol HCl] | 2 Adults Normal Wings |
| Cc1ccc(-c2cc(C(F)(F)F)nn2-c2ccc(S(N)(=O)=O)cc2)cc1 [Celecoxib] | 1 Adult Normal Wings Adults |
| CN(C)CC/C=C1/c2ccccc2Sc2ccc(Cl)cc21 [Chlorprothixene] | 3 Adults Normal Wings |
| O=P(O)(O)C(Cl)(Cl)P(=O)(O)O [Clodronate] | 3 Adult Normal Wings Adults |
| Cc1cc(C(C#N)c2ccc(Cl)cc2)c(Cl)cc1NC(=O)c1cc(I)cc(I)c1O (stereo not drawn) [Closantel] | 2 Adults Normal Wings |
| Clc1ccccc1C(c1ccccc1)(c1ccccc1)n1ccnc1 [Clotrimazole] | 1 Adult Normal Wings Adults |
| CN1CCN(C(c2ccccc2)c2ccccc2)CC1 [Cyclizine Hcl] | 1 Adult Normal Wings Adults |
| CCCCOc1cc(C(=O)NCCN(CC)CC)c2ccccc2n1 [Dibucaine] | 1 Adult Normal Wings Adults |
| Cc1onc(-c2c(Cl)cccc2Cl)c1C(=O)N[C@@H]1C(=O)N2[C@@H]1SC(C)(C)[C@@H]2C(=O)O [Dicloxacillin Sodium Salt] | 1 Adult Normal Wings Adults |
| CCn1cc(C(=O)O)c(=O)c2cc(F)c(N3CCNCC3)nc21 [Enoxacin] | 3 Adult Normal Wings Adults |
| CCN(CC)C(=O)c1ccc(O)c(OC)c1 [Ethamivan] | 1 Adult Normal Wings Adults |
| O=C(COc1ccc(Cl)cc1)N1CCN(Cc2ccc3c(c2)OCO3)CC1 [Fipexide Hydrochloride] | 1 Adult Normal Wings Adults |
| OC(Cn1cncn1)(Cn1cncn1)c1ccc(F)cc1F [Fluconazole] | 1 Adult Normal Wings Adults |
| C[C@]12CCC(=O)C=C1CC[C@H]1[C@@H]3CC[C@](O)(C(=O)CO)[C@@]3(C)C[C@H](O)[C@@]12F [Fludrocortisone] | 2 Adults Normal Wings |
